US6740670B2, “Thiazolidine derivatives and its use as antifungal agent” (Oxford Glycosciences (UK) Ltd., priority 2000, dated 2004)

Tests used:
[1] = target: T1, Candida albicans PMT-1 enzyme (Candida albicans, UniProt O74189); experiment: PMT-1 assay; assay type: biochemical; conditions: Candida albicans membrane protein, peptide DYATAV, dolicholphospho-[3H]-mannose, 60 minutes at 25° C., pH 8.0; read-out: PMT-1 Inhibition (IC50)
T1 construct: 25 μg of Candida albicans membrane protein; endogenous in cells
T1 sequence (O74189 1-877): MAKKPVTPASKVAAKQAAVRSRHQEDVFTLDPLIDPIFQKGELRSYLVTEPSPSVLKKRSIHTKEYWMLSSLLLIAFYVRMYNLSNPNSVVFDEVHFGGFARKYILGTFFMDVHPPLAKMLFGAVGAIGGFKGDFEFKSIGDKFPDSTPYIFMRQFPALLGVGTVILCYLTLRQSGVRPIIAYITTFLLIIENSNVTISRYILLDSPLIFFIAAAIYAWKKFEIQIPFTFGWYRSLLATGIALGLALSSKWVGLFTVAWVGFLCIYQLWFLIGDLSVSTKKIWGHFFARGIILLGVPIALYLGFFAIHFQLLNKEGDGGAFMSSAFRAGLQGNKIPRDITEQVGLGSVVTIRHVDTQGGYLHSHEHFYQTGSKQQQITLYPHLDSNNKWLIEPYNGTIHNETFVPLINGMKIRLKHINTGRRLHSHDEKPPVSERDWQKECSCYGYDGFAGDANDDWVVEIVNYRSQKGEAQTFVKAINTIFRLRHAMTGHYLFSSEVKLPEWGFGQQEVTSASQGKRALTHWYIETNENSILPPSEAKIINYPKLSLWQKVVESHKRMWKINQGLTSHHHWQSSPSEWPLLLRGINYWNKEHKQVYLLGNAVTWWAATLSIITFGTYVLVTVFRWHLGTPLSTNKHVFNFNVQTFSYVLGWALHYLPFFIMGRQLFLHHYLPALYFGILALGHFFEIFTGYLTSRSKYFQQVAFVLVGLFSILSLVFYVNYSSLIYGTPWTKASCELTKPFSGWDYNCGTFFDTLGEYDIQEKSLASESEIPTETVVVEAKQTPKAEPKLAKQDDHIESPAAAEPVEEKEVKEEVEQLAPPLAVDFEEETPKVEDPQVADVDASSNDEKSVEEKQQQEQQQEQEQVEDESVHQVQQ
Protocol: The assay method is based upon the transfer of a radiolabelled mannose moiety from dolicholphosphomannose onto a threonine hydroxyl residue in a short peptide, as catalysed by the Candida albicans PMT-1 enzyme. Dolicholphospho-[^3H]-mannose is synthesised enzymatically from GDP-[^3H]-mannose and purified by chloroform: methanol extraction.
100000 Dpm of the generated substrate is incubated with 400 μg phosphatidylcholine, 25 μg of peptide (DYATAV) and 25 μg of Candida albicans membrane protein in a final volume of 50 μl in 100 mM Tris/1 mM MgCl2 buffer, pH 8.0. After 60 minutes at 25° C., the reaction is stopped with 50 μl of methanol. The unreacted radiolabel is removed by the addition of 150 μl of 0.4 g/ml octadecyl-functionalised silica (C18) in methanol. The C18 material is removed by centrifugation and the activity transferred to the peptide is counted in the supernatant.

[2] = tested on: Candida albicans (strain SC5314); experiment: G418 sensitivity assay; assay type: cell-based; conditions: G418 100 μg/ml, overnight at 37° C., OD600 nm, concentration giving 50% reduction in cell growth relative to culture with G418 alone
Protocol: This assay is based upon the observed increased sensitivity of the pmt1−/− Candida strain to Geneticin (G418) (6). 100 μl of a 0.1OD600 nm culture of Candida albicans (strain SC5314) is placed into a 96 well plate in the presence or absence of varying concentrations of test compound. The compounds are initially dissolved in DMSO and added to the cultures at a final DMSO concentration of 1%. G418 is added to a final concentration of 100 μg/ml. In the absence of PMT1 inhibition, this concentration of G418 has no effect on the proliferation of the organism. The cultures are grown overnight at 37° C. and cell density is then estimated by an OD600 nm measurement. The effect of the test compound is calculated as the concentration that gives a 50% reduction in cell growth relative to the culture with G418 alone.

Compound	IC50 [1] [nM]	IC50 [2] [nM]	melting point [°C]
CCCCCN(CCCCC)C(=O)c1cc(/C=C2\SC(=S)N(CC(=O)O)C2=O)ccc1OCc1ccccc1 [Example 34, 5-[[[3-(N,N-Dipentylamino)carbonyl-4-(phenylmethoxy)]-phenyl]methylene]-4-oxo-2-thioxo-3-thiazolidineacetic acid]	2500	1500	
C[C@@H](c1ccccc1)N(Cc1ccccc1)C(=O)c1cc(/C=C2\SC(=S)N(CC(=O)O)C2=O)ccc1OCc1ccccc1 [Example 35, 5-[[[3-((S)-N-Benzyl-N-alpha-methylbenzylamino)carbonyl-4-(phenyl-methoxy)]-phenyl]methylene]-4-oxo-2-thioxo-3-thiazolidineacetic acid]	600	650	204 to 209
CCCCCN(CCCCC)C(=O)c1cc(/C=C2\SC(=S)N(CC(=O)O)C2=O)ccc1OCc1ccc(F)cc1F [Example 49, 5-[[[3-(N,N-Dipentylamino)carbonyl-4-[(2,4-difluorophenyl)-methoxy]]phenyl]methylene]-4-oxo-2-thioxo-3-thiazolidineacetic acid]	700	700	
